pKi: −log10 of the molar value. Where a name gives a salt, the structure may show the parent alone.

Chain of human sigma 1 receptor (Q99720 whole entry): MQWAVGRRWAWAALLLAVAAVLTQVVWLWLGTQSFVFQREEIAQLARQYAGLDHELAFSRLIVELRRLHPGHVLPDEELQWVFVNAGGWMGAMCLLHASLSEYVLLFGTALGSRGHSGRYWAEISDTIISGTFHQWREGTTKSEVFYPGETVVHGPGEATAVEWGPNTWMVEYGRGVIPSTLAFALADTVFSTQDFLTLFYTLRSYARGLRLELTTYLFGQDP

The target in the first test is human sigma 1 receptor (Homo sapiens (Human), UniProt Q99720). Nature of the test: Human Sigma 1 Receptor Radioligand Assay. The class given is binding. To be noted: transfected HEK-293 membranes, 5 nM [3H](+)-pentazocine as radioligand, 37° C., 120 minutes. As to the method:
Human Sigma 1 Receptor Radioligand Assay
To investigate binding properties of sigma 1 receptor ligands to human sigma 1 receptor, transfected HEK-293 membranes and [^3H](+)-pentazocine (Perkin Elmer, NET-1056), as the radioligand, were used. The assay was carried out with 7 μg of membrane suspension, 5 nM of [^3H](+)-pentazocine in either absence or presence of either buffer or 10 μM Haloperidol for total and non-specific binding, respectively. Binding buffer contained Tris-HCl 50 mM at pH 8. Plates were incubated at 37° C. for 120 minutes. After the incubation period, the reaction mix was then transferred to MultiScreen HTS, FC plates (Millipore), filtered and plates were washed 3 times with ice-cold 10 mM TrisHCL (pH7.4). Filters were dried and counted at approximately 40% efficiency in a MicroBeta scintillation counter (Perkin-Elmer) using EcoScint liquid scintillation cocktail.
For orientation: pKi means the negative decadic logarithm of the Ki, by convention in mol/L. Lower therefore signals a high Ki. Consider `CC(C(=O)N1CCn2c(cc3ccccc32)C1)N1CCN(C2CCCCC2)CC1` (stereo not drawn) [Example 24, 2-(4-cyclohexylpiperazin-1-yl)-1-(3,4-dihydropyrazino[1,2-a]indol-2(1H)-yl)propan-1-one], for which the pKi is 7.42. Compound `O=C(CN1CCC(Cc2ccccc2)CC1)N1CCn2c(cc3ccccc32)C1` [Example 6, 2-(4-benzylpiperidin-1-yl)-1-(3,4-dihydropyrazino[1,2-a]indol-2(1H)-yl)ethanone hydrochloride] showed a pKi of 7.84. The compound `C[C@@H](C(=O)N1CCN2c3ccccc3C[C@H]2C1)N1CCN(C2CCCCC2)CC1` [Example 53, (S)-2-(4-cyclohexylpiperazin-1-yl)-1-((S)-3,4,10,10a-tetrahydropyrazino[1,2-a]indol-2(1H)-yl)propan-1-one] gave a pKi of 7.02. As for `CN1CCN(C(C)(C)C(=O)N2CCn3c(cc4ccccc43)C2)CC1` [Example 2, 1-(3,4-dihydropyrazino[1,2-a]indol-2(1H)-yl)-2-methyl-2-(4-methylpiperazin-1-yl)propan-1-one], the pKi was 7.02.

In turn, `CC(C(=O)N1CCN2c3ccccc3CC2C1)N1CCN(C)CC1` (stereo not drawn) [Example 25, 2-(4-methylpiperazin-1-yl)-1-(3,4,10,10a-tetrahydropyrazino[1,2-a]indol-2(1H)-yl)propan-1-one] showed a negative-log Ki (pKi) of 6.93. `C[C@H](CC(=O)N1CCn2c(cc3ccccc32)C1)N1CCN(C)CC1` [Example 50, (R)-1-(3,4-dihydropyrazino[1,2-a]indol-2(1H)-yl)-3-(4-methylpiperazin-1-yl)butan-1-one] had a pKi of 6.60. The compound `CC(C(=O)N1CCn2c(cc3ccccc32)C1)N1CCC(N2CCCCC2)CC1` (stereo not drawn) [Example 37, 2-(1,4′-bipiperidin-1′-yl)-1-(3,4-dihydropyrazino[1,2-a]indol-2(1H)-yl)propan-1-one] showed a pKi of 6.30. Still for that read-out and setting: the result for `O=C(CCCN1CCCCCC1)N1CCn2c(cc3cc(F)ccc32)C1` [Example 21, 4-(azepan-1-yl)-1-(8-fluoro-3,4-dihydropyrazino[1,2-a]indol-2(1H)-yl)butan-1-one] reads 7.66; that for `C[C@@H](CC(=O)N1CCn2c(cc3ccccc32)C1)N1CCN(C)CC1` [Example 49, (S)-1-(3,4-dihydropyrazino[1,2-a]indol-2(1H)-yl)-3-(4-methylpiperazin-1-yl)butan-1-one], 7.04; that for `C[C@@H](C(=O)N1CCN2c3ccccc3C[C@@H]2C1)N1CCN(C)CC1` [Example 33, (S)-2-(4-methylpiperazin-1-yl)-1-((R)-3,4,10,10a-tetrahydropyrazino[1,2-a]indol-2(1H)-yl)propan-1-one], 7.07. For the compound `C[C@H](CN1CCN(C)CC1)C(=O)N1CCn2c(cc3ccccc32)C1` [Example 47, (R)-1-(3,4-dihydropyrazino[1,2-a]indol-2(1H)-yl)-2-methyl-3-(4-methylpiperazin-1-yl)propan-1-one], the pKi was 7.31. Compared with the last compound, the pKi is 0.24 log units higher. For the compound `Cc1ccc2c(c1)cc1n2CCN(C(=O)C(C)N2CCCCCC2)C1` (stereo not drawn) [Example 13, 2-(azepan-1-yl)-1-(8-methyl-3,4-dihydropyrazino[1,2-a]indol-2(1H)-yl)propan-1-one], the negative-log Ki (pKi) is 7.16. Same read-out and setting: the result for `CC(C(=O)N1CCn2c(cc3cc(F)ccc32)C1)N1CCN(C2CCCCC2)CC1` (stereo not drawn) [Example 27, 2-(4-cyclohexylpiperazin-1-yl)-1-(8-fluoro-3,4-dihydropyrazino[1,2-a]indol-2(1H)-yl)propan-1-one] reads 7.59; that for `CC(CC(=O)N1CCn2c(cc3ccccc32)C1)N1CCN(C)CC1` (stereo not drawn) [Example 3, 1-(3,4-dihydropyrazino[1,2-a]indol-2(1H)-yl)-3-(4-methylpiperazin-1-yl)butan-1-one], 7.17.

Still in this test, the particulars now being: transfected HEK-293 membranes, 5 nM [3H](+)-pentazocine as radioligand, 37° C., 120 minutes; maleate.
`CC(C(=O)N1CCn2c(cc3ccccc32)C1)N1CCCCCC1` (stereo not drawn) [Example 8, 2-(azepan-1-yl)-1-(3,4-dihydropyrazino[1,2-a]indol-2(1H)-yl)propan-1-one maleate] had a pKi of 7.53.
